Laboratory results as given in ChEMBL document CHEMBL5465560, “Selectivity Literature for EUbOPEN Chemogenomic Library” (2024).
Values belong to the compound of their own block, whether it stands above or below them.

Assays:
[1] = target: Serine/threonine-protein kinase PAK 1 (Homo sapiens) (UniProt Q13153); experiment: Selectivity interaction (Kinase panel (DSF assayt)) EUB0001479a PAK1
[2] = target: T1, Serine/threonine-protein kinase 26 (Homo sapiens, UniProt Q9P289); experiment: Selectivity interaction (Kinase panel (DSF assay)) EUB0001479a STK26
T1 sequence (Q9P289 2-416 limits assumed): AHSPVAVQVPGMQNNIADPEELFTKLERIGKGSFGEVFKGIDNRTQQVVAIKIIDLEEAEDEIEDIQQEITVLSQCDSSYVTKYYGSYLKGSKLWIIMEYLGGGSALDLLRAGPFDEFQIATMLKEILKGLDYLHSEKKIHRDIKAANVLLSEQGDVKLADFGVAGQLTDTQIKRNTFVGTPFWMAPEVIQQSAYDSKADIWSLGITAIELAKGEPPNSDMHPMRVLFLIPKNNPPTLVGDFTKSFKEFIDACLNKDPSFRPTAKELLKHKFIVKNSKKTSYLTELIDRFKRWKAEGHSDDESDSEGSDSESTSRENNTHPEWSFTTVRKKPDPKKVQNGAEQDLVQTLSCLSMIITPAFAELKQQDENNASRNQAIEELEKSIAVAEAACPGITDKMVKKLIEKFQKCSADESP

[3] = target: Serine/threonine-protein kinase 24 (Homo sapiens) (UniProt Q9Y6E0); experiment: Selectivity interaction (Kinase panel (DSF assay)) EUB0001479a STK24
Sequence of Serine/threonine-protein kinase 24 (Homo sapiens) (Q9Y6E0 whole entry, looked up): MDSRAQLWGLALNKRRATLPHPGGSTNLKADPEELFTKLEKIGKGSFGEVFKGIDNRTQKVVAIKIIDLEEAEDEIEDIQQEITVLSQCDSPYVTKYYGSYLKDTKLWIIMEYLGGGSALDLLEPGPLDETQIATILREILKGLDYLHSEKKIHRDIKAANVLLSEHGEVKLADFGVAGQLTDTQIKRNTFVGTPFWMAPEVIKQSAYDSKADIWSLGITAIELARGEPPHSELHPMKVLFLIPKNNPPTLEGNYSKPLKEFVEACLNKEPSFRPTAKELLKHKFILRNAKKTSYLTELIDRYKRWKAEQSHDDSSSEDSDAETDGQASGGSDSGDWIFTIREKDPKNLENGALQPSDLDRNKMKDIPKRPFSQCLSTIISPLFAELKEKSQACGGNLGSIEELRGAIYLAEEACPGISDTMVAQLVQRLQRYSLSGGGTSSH

[4] = target: 5-hydroxytryptamine receptor 2A (Homo sapiens, UniProt P28223); experiment: Selectivity interaction (CEREB panel (panel of receptors, transporters, ion channels, and other enzymes)) EUB0001119a HTR2A; settings: at 10 µM
Sequence of 5-hydroxytryptamine receptor 2A (P28223 whole entry): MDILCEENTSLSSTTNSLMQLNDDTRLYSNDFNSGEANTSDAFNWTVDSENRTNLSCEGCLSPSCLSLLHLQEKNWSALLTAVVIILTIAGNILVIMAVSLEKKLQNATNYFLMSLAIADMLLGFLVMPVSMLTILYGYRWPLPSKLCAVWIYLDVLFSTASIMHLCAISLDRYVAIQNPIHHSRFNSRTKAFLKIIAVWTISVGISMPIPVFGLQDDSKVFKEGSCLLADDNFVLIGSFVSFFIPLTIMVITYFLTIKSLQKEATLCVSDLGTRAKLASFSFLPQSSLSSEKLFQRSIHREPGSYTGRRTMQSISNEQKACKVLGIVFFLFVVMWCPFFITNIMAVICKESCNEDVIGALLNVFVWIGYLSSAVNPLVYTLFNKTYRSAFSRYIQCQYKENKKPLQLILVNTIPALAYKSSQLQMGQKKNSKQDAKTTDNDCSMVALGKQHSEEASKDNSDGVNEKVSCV

[5] = target: Serine/threonine-protein kinase PAK 2 (Homo sapiens) (UniProt Q13177); settings: at 100 nM
Sequence of Serine/threonine-protein kinase PAK 2 (Homo sapiens) (Q13177 whole entry): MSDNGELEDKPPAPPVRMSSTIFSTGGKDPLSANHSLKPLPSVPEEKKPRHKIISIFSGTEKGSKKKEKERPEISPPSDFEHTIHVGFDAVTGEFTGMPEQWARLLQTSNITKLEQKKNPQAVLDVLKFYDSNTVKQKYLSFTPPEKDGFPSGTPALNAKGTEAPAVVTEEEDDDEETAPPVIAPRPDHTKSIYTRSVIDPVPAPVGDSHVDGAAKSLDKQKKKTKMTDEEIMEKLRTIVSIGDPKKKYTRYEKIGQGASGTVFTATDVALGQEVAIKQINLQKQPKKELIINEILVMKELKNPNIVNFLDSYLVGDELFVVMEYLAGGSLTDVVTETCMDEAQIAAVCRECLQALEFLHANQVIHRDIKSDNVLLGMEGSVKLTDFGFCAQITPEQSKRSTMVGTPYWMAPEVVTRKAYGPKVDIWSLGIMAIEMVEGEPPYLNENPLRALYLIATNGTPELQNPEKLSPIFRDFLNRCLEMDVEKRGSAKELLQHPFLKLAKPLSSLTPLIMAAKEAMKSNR

[6] = target: T1, Serine/threonine-protein kinase 26; settings: at 100 nM
[7] = target: Mitogen-activated protein kinase kinase kinase kinase 5 (Homo sapiens) (UniProt Q9Y4K4); experiment: Selectivity interaction (Kinase panel (Invitrogen)) EUB0001119a MAP4K5; settings: at 100 nM
Sequence of Mitogen-activated protein kinase kinase kinase kinase 5 (Homo sapiens) (Q9Y4K4 whole entry, looked up): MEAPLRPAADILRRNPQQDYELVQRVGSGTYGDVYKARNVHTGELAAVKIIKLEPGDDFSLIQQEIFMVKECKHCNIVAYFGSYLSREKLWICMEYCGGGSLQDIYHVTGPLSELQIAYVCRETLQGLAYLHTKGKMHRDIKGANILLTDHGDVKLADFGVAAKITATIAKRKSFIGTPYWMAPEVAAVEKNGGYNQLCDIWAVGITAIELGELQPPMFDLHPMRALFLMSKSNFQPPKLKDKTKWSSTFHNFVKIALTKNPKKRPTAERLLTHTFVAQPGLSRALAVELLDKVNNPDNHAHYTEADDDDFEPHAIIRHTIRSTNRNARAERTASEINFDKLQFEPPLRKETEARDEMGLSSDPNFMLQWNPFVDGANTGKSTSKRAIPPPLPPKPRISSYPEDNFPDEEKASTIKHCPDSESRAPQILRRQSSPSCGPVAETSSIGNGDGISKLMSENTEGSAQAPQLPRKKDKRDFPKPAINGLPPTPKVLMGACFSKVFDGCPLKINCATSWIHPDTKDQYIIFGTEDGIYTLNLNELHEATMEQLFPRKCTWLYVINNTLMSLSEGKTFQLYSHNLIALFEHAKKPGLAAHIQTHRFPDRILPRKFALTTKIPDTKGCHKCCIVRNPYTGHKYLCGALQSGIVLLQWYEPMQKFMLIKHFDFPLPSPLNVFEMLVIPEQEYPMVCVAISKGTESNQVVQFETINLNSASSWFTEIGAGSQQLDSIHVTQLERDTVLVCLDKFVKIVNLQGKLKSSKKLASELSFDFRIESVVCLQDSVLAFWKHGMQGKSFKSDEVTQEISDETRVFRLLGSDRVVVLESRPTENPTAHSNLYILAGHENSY

[8] = target: Tyrosine-protein kinase Lck (Homo sapiens, UniProt P06239); experiment: Selectivity interaction (Kinase panel (Invitrogen)) EUB0001119a LCK; settings: at 100 nM
[9] = target: 5-hydroxytryptamine receptor 4 (Homo sapiens) (UniProt Q13639); experiment: Selectivity interaction (CEREB panel (panel of receptors, transporters, ion channels, and other enzymes)) EUB0001119a HTR4; settings: at 10 µM
Sequence of 5-hydroxytryptamine receptor 4 (Homo sapiens) (Q13639 whole entry): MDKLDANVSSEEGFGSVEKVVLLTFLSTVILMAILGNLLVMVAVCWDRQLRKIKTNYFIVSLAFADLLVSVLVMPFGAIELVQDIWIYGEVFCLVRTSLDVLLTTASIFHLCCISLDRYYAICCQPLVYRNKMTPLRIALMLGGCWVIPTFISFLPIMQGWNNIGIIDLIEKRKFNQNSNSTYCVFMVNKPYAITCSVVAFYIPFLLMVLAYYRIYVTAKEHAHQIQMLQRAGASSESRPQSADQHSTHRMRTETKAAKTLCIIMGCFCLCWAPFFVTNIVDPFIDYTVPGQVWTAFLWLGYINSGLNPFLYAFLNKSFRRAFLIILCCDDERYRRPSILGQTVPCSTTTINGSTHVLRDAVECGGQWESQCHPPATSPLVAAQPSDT

[10] = target: Serine/threonine-protein kinase SIK1 (Homo sapiens) (UniProt P57059); experiment: Selectivity interaction (Kinase panel (Invitrogen)) EUB0001119a SIK1; settings: at 100 nM
Sequence of Serine/threonine-protein kinase SIK1 (Homo sapiens) (P57059 whole entry): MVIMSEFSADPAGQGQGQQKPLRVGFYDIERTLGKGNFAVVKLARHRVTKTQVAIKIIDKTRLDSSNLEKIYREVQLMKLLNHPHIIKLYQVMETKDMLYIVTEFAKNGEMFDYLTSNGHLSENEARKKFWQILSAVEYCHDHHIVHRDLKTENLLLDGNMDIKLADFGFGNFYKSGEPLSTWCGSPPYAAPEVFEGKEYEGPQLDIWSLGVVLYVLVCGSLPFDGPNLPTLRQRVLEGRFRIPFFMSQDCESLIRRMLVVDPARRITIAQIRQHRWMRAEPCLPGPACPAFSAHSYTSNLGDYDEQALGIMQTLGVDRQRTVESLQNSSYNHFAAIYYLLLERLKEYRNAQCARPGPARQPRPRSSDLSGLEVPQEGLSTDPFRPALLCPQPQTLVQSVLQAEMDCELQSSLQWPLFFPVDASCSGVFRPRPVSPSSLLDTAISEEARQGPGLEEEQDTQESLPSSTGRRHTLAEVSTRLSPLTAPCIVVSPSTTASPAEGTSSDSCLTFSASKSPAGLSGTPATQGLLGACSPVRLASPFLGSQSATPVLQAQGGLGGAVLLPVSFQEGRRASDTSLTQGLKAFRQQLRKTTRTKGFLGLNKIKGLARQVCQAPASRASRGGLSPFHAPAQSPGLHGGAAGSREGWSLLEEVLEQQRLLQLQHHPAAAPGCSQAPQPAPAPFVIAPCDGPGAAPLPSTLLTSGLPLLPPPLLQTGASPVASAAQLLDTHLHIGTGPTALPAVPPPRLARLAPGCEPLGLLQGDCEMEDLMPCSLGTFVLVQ

[11] = target: T2, 5-hydroxytryptamine receptor 1A (Homo sapiens) (UniProt P08908); experiment: Selectivity interaction (CEREB panel (panel of receptors, transporters, ion channels, and other enzymes)) EUB0001119a HTR1A; settings: at 10 µM
T2 sequence (whole entry): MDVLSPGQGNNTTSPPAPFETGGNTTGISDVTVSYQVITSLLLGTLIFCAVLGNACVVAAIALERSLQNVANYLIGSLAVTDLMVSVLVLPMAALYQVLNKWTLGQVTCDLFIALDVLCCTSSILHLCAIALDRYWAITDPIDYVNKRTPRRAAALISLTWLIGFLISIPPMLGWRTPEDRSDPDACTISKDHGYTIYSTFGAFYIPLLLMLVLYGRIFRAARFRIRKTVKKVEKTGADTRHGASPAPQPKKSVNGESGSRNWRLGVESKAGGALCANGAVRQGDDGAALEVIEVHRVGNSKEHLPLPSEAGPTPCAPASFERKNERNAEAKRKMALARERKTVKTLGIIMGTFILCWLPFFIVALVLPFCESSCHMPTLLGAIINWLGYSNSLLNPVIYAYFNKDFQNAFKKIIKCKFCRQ

[12] = target: Sodium channel protein type 2 subunit alpha (Homo sapiens) (UniProt Q99250); experiment: Selectivity interaction (CEREB panel (panel of receptors, transporters, ion channels, and other enzymes)) EUB0001119a SCN2A; settings: at 10 µM
[13] = target: 5-hydroxytryptamine receptor 1B (Homo sapiens) (UniProt P28222); experiment: Selectivity interaction (CEREB panel (panel of receptors, transporters, ion channels, and other enzymes)) EUB0001119a HTR1B; settings: at 10 µM
[14] = target: T3, 5-hydroxytryptamine receptor 2B (Homo sapiens, UniProt P41595); experiment: Selectivity interaction (CEREB panel (panel of receptors, transporters, ion channels, and other enzymes)) EUB0001119a HTR2B; settings: at 10 µM
T3 sequence (P41595 whole entry): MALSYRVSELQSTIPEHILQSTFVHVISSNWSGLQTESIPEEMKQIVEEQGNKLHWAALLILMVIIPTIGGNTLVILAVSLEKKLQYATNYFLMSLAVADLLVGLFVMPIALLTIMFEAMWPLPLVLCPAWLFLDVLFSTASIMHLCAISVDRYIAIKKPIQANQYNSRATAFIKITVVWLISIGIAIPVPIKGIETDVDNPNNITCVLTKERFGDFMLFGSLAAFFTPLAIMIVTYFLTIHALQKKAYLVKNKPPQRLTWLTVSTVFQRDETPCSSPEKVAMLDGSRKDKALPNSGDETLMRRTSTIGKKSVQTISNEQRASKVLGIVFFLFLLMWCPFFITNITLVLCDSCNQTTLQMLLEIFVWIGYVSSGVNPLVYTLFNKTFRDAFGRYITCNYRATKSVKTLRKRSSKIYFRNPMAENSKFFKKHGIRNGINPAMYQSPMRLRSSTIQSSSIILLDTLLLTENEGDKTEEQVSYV

[15] = target: Serine/threonine-protein kinase PAK 3 (Homo sapiens) (UniProt O75914); experiment: Selectivity interaction (Kinase panel (Invitrogen)) EUB0001119a PAK3; settings: at 100 nM
[16] = target: Serine/threonine-protein kinase 24 (Homo sapiens) (UniProt Q9Y6E0); experiment: Selectivity interaction (Kinase panel (Invitrogen)) EUB0001119a STK24; settings: at 100 nM
[17] = target: Sodium-dependent dopamine transporter (Homo sapiens, UniProt Q01959); experiment: Selectivity interaction (GPCR panel (PDSP screen)) EUB0001576a SLC6A3; settings: at 10 µM
[18] = target: Sigma intracellular receptor 2 (Homo sapiens) (UniProt Q5BJF2); experiment: Selectivity interaction (GPCR panel (PDSP screen)) EUB0001576a TMEM97; settings: at 10 µM
[19] = target: T3, 5-hydroxytryptamine receptor 2B; experiment: Selectivity interaction (GPCR panel (PDSP screen)) EUB0001576a HTR2B; settings: at 10 µM
[20] = target: Epithelial discoidin domain-containing receptor 1 (Homo sapiens) (UniProt Q08345); experiment: Selectivity interaction (Kinase panel (Reaction Biology)) EUB0001464a DDR1; settings: at 1 µM
[21] = target: Mitogen-activated protein kinase kinase kinase kinase 5 (Homo sapiens) (UniProt Q9Y4K4); experiment: Selectivity interaction (Kinase panel (Reaction Biology)) EUB0001464a MAP4K5; settings: at 1 µM

Sequence of Serine/threonine-protein kinase PAK 1 (Homo sapiens) (Q13153 whole entry): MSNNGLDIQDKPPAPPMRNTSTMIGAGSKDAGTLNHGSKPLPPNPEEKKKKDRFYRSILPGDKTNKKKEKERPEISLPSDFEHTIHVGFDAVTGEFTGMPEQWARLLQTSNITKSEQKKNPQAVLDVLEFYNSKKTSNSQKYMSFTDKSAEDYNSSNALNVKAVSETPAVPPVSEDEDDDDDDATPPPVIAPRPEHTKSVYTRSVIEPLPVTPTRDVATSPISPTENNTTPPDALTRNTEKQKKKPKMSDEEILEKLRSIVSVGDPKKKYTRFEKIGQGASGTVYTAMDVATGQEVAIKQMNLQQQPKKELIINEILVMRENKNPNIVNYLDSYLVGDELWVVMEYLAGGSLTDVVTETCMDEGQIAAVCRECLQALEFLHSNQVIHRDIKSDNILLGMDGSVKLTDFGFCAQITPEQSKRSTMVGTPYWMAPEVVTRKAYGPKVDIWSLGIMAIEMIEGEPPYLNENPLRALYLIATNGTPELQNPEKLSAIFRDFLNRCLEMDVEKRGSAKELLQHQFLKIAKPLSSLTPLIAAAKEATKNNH

dTM [1]: 0.9 K | dTM [2]: 0.8 K | dTM [3]: 0.2 K
SMILES: CN(C)c1ncc2cc(-c3ccc(-c4ncccc4F)cc3Cl)c(=O)n(C[C@H]3OC[C@H](N)CO3)c2n1

% of inhibition [4]: 75% | % of inhibition [5]: 101% | % of inhibition [6]: 89.7% | % of inhibition [7]: 99.8% | % of inhibition [8]: 75.7% | % of inhibition [9]: 75% | % of inhibition [10]: 95.3% | % of inhibition [11]: 56% | % of inhibition [12]: 75% | % of inhibition [13]: 84% | % of inhibition [14]: 92% | % of inhibition [15]: 91.5% | % of inhibition [16]: 80.6%
SMILES: CNc1ncc2cc(-c3ccc(-c4cccc(C)n4)cc3Cl)c(=O)n(C[C@H]3OC[C@H](N)CO3)c2n1

% of inhibition [17]: 80.5% | % of inhibition [18]: 70.6% | % of inhibition [19]: 47.5%
SMILES: CN(C)C(=O)c1sc2nc(N3CCC(S(C)(=O)=O)CC3)cc(C(F)(F)F)c2c1N

% of inhibition [20]: 28% | % of inhibition [21]: 28%
SMILES: c1ccc2c(-c3coc4cc(-c5ccc(N6CCNCC6)cc5)cnc34)ccnc2c1
